Assay results reported in article PMC12110821, “Polyphyllin I Inhibits the Metastasis of Cervical Cancer Through the Regulation of the β-Catenin Signaling Pathway” (International Journal of Molecular Sciences, 2025).

Biological target: T1, β-catenin (Homo sapiens, UniProt P35222)
T1 construct: gene CTNNB1; β-catenin protein (11279-H20B, Sinobiological)
T1 sequence (P35222 2-781): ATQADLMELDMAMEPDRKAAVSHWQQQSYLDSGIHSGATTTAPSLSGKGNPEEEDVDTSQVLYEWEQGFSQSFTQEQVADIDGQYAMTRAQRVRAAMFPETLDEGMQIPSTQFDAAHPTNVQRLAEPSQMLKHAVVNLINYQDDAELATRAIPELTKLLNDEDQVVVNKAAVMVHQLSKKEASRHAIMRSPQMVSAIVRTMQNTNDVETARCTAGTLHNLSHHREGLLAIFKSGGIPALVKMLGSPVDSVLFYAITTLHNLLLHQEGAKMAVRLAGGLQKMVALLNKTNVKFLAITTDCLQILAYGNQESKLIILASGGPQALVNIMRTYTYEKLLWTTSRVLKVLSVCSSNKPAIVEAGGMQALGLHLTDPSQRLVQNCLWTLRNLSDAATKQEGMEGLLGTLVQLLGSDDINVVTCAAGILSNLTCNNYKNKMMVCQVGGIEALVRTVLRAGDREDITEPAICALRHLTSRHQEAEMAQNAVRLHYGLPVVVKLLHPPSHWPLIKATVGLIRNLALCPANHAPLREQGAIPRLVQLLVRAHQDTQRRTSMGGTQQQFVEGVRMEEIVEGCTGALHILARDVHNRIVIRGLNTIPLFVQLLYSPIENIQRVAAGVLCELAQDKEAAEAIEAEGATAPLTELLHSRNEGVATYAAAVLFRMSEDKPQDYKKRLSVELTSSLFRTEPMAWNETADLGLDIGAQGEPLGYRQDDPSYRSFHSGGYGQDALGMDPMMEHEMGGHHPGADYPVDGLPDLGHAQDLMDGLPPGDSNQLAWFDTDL
Assay: SPR (Biacore T200, CM5 chip, amine-coupled β-catenin); supported by CETSA in HO-8910PM lysate
Format: binding

C[C@@H]1CC[C@@]2(OC1)O[C@H]1C[C@H]3[C@@H]4CC=C5C[C@@H](O[C@@H]6O[C@H](CO)[C@@H](O[C@@H]7O[C@@H](CO)[C@H](O)[C@H]7O)[C@H](O)[C@H]6O[C@@H]6O[C@@H](C)[C@H](O)[C@@H](O)[C@H]6O)CC[C@]5(C)[C@H]4CC[C@]3(C)[C@H]1[C@@H]2C [PPI, Polyphyllin I]
Kd: 2200 nM
